Earlier results as cited in patent US10441617B2, “Breeding, production, processing and use of medical cannabis” (priority 2013, dated 2019).
Read-outs that look alike come from different tables or passages of the source.

What was measured:
[1] = biological target: cannabinoid receptor CB1 (Homo sapiens, UniProt P21554)
[2] = biological target: CB2 receptor (Homo sapiens, UniProt P34972)
[3] = biological target: GPR55 (Homo sapiens, UniProt Q9Y2T6)
[4] = system: Mu and Delta opioid receptor sites
[5] = CBD 1-10 mg/kg IP over 21 days with equivalent doses of delta-9-THC
[6] = biological target: T1, 5-HT1A receptor (Homo sapiens, UniProt P08908)
T1 sequence (P08908 1-422): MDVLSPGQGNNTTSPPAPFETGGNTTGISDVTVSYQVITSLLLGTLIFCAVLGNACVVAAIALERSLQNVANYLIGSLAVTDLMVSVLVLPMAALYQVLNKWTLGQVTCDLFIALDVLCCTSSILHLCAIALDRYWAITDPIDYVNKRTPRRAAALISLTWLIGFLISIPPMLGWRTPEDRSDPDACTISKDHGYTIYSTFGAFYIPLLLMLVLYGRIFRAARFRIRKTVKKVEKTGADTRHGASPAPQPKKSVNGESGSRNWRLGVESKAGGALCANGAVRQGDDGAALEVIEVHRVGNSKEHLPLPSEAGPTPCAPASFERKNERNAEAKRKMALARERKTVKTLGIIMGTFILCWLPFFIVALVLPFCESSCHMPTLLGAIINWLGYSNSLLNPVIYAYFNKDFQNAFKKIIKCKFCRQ

[7] = system: aggressive human breast cancer cells; conditions: in vitro
[8] = system: α2-adrenergic receptor

cannabinoid receptor CB1, sequence (P21554 whole entry): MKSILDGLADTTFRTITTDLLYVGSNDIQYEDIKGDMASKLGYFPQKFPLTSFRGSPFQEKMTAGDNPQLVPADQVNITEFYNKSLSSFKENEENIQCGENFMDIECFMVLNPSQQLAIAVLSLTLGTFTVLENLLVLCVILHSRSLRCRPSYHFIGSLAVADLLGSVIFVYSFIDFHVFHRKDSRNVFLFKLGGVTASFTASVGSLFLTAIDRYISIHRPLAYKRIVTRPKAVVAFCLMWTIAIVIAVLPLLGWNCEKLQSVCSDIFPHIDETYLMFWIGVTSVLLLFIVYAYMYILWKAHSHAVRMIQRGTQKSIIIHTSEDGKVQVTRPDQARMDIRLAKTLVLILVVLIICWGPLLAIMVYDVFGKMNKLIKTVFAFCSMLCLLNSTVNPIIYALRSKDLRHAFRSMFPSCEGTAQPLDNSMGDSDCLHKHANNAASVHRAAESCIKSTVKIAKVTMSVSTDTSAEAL
CB2 receptor, sequence (P34972 whole entry): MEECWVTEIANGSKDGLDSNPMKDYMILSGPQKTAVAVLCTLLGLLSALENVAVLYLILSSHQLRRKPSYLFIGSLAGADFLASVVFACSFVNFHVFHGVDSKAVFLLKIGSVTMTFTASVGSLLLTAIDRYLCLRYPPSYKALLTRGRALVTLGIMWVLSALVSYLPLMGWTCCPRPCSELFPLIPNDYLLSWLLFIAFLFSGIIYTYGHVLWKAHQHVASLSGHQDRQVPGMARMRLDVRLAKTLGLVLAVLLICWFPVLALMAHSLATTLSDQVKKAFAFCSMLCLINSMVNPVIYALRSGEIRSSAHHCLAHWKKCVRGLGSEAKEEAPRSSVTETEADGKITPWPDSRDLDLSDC
GPR55, sequence (Q9Y2T6 whole entry, species assumed): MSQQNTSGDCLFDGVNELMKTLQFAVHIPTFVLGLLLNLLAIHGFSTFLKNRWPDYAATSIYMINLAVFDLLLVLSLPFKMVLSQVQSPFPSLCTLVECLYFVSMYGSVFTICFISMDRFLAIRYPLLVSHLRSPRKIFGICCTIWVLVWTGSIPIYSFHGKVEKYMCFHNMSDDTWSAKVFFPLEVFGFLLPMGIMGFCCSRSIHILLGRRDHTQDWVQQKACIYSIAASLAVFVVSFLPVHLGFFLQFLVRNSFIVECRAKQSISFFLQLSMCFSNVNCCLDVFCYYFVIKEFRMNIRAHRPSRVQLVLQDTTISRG

| Structure (SMILES) | Activity at CB1 receptor [1] | Activity at CB2 receptor [2] | Activity at 5-HT1A receptor [6] | also measured |
| --- | --- | --- | --- | --- |
| CCCCCc1cc(O)c2c(c1)OC(C)(C)c1ccc(C)cc1-2 [CBN, Cannabinol] | weak agonist | weak agonist | – | – |
| CCCCCc1cc(O)c2c(c1)OC(C)(C)[C@@H]1CCC(C)=CC21 (stereo partly drawn) [THC, delta-9-tetrahydrocannabinol] | – | partial agonist activity | – | – |
| CCCc1cc(O)c2c(c1)OC(C)(C)[C@@H]1CCC(C)=C[C@@H]21 [THCV, Tetrahydrocannabivarin] | CB1 receptor antagonist | – | – | – |
| C=C(C)[C@@H]1CCC(C)=C[C@H]1c1c(O)cc(CCCCC)cc1O [CBD, Cannabidiol] | no affinity | no affinity | 5-HT1A receptor agonist | Effect of CBD on the effects of delta-9-THC (ratio of CBD/delta-9-THC 1.8): enhanced the effects of delta-9-THC; Effect of CBD on the effects of delta-9-THC (ratio of CBD/delta-9-THC around 8.1): antagonistic effects; Activity at GPR55 [3]: antagonist; Activity at Mu and Delta opioid receptor sites [4]: allosteric modulator; Behavioral effects of delta-9-THC [5]: augmented the anxiogenic and locomotor suppressant effects and social interaction deficits; Blood and brain levels of delta-9-THC [5]: increased blood and brain levels; Growth of aggressive human breast cancer cells [7]: reduces growth |
| CCCCCc1cc(O)c(C/C=C(\C)CCC=C(C)C)c(O)c1 [CBG, Cannabigerol] | low affinity CB1 receptor antagonist | binds to the CB2 receptor | moderate affinity 5-HT1A receptor antagonist | Activity at α2-adrenergic receptor [8]: high affinity α2-adrenergic receptor agonist |
